Measured values taken from ChEMBL document CHEMBL1201862, “PubChem BioAssay data set” (2004).
Activity calls are given as the source filed them. For most assays here, no stated cut-off is given here; in the data, actives have a measured EC50 and inactives only a lower limit.

Columns and labels:
[1] = Luminescence Cell-Based Dose Confirmation HTS to Identify Inhibitors of Platelet Dense Granule Release. [Related pubchem assays: 1663 (Primary HTS), 1678 (Summary of Project)]; assay type: functional
[2] = target: Luciferin 4-monooxygenase (Photinus pyralis, UniProt P08659); experiment: firefly luciferase enzyme inhibitors, dose response, biochemical, luminescence (AID 1891)
[3] = target: Genome polyprotein (dengue virus type 2, UniProt P29990); experiment: Dengue-2 NS5 methyltransferase inhibitors, primary screen, biochemical, confirmation dose response (AID 588689); assay type: functional
[4] = target: T1, Zinc finger protein mex-5 (Caenorhabditis elegans, UniProt Q9XUB2); experiment: MEX-5/TCR-2 RNA interaction inhibitors, dose response, biochemical, C. elegans, fluorescence polarization (AID 1960)
T1 sequence (Q9XUB2 whole entry): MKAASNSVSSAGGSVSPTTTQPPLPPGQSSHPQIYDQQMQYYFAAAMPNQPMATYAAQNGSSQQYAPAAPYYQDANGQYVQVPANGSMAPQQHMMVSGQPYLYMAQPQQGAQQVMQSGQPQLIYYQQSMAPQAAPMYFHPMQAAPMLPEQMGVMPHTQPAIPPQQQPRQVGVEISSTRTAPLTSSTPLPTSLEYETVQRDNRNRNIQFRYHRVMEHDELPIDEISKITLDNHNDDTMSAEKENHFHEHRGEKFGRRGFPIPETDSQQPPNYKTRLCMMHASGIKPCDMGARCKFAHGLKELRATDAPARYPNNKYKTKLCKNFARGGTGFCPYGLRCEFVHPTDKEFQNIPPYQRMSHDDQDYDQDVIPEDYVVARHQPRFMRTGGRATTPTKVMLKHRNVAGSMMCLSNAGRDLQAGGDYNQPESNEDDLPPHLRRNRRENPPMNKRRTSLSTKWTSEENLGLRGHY

[5] = target: T2, RNA-binding protein pos-1 (Caenorhabditis elegans, UniProt G5EF15); experiment: inhibitors of POS-1/mex-3 RNA binding, dose response, biochemical, fluorescence polarization (AID 1964);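 further: purified POS-1 fused to maltose binding protein made in E. coli; potency of compounds blocking POS-1 binding to fluorescent RNA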
T2 sequence (G5EF15 whole entry): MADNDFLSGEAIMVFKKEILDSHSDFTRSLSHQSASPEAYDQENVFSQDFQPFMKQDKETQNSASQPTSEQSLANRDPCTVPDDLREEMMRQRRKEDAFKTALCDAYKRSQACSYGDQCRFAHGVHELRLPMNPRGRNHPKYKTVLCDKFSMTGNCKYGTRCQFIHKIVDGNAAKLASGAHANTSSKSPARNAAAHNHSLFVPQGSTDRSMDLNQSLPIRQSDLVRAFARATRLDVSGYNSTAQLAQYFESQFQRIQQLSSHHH

[6] = target: FAD-linked sulfhydryl oxidase ALR (Homo sapiens, UniProt P55789); experiment: inhibitors of human ALR sulfhydryl oxidase, dose response, biochemical, H2O2 detection, luminescence, cherry-pick (AID 493248)
[7] = system: Streptococcus sp. 'group A'; experiment: growth inhibition of control SK(-) GAS strain, dose response, counter-screen for streptokinase expression inhibitor project, luminescence, kanamycin, BacTiterGlo, confirmation (AID 1900); assay type: functional, organism-based
[8] = system: Streptococcus; experiment: Group A Streptococcus viability loss, dose response, counter-screen for streptokinase expression inhibitor project, luminescence, BacTiterGlo (AID 1915); assay type: functional, organism-based;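 further: potency for reduction of bacterial viability or growth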
[9] = system: H9c2; experiment: cells; assay type: functional, cell-based; conditions: Rattus norvegicus, H9c2, Myocardium;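 further: confirmatory concentration-response retest of ultra-high-throughput screening hits for modulation of myocardial damage; cell death induced by hydrogen peroxide oxidative stress; compound pretreatment for 60 min then peroxide exposure for 2 h; potency is for protecting the cells against peroxide damage rather than for killing them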
[10] = target: T3, Streptokinase A (Streptococcus pyogenes serotype M1, UniProt P10520); experiment: S. pyogenes streptokinase expression inhibitors, potency, dose response, plasminogen activation absorbance, OD405 (AID 1914); assay type: functional, Streptococcus pyogenes M1 GAS;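 further: secreted streptokinase activity via plasminogen activation per viability signal from cell pellet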
T3 sequence (P10520 whole entry): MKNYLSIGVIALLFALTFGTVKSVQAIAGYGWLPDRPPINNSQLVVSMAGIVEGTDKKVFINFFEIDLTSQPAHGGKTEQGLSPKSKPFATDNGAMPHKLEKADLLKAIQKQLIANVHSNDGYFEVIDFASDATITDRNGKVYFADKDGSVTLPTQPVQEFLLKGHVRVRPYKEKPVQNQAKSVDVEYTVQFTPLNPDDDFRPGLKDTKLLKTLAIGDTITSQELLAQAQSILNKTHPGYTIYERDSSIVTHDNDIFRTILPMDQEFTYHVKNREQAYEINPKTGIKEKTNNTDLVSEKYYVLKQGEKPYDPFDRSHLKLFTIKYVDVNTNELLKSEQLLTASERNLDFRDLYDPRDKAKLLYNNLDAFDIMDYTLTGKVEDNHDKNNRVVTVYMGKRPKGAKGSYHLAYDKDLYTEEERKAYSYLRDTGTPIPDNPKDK

Luciferin 4-monooxygenase, sequence (P08659 whole entry): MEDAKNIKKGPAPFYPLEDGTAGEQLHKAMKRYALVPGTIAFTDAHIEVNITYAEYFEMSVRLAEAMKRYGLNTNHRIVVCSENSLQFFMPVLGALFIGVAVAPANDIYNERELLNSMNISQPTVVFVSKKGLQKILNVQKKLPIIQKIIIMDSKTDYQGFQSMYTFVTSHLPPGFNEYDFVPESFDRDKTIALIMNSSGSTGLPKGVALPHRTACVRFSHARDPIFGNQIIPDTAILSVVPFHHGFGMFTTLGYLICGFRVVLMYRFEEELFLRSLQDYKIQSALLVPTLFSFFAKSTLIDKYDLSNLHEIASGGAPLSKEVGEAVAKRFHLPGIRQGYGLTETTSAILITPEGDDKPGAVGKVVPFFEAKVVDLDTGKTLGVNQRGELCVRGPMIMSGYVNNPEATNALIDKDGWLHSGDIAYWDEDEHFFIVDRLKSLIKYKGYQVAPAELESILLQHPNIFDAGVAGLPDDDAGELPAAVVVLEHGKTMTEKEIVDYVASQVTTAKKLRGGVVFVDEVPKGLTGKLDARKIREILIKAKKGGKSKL
Genome polyprotein, sequence (P29990 2492-3391 limits assumed): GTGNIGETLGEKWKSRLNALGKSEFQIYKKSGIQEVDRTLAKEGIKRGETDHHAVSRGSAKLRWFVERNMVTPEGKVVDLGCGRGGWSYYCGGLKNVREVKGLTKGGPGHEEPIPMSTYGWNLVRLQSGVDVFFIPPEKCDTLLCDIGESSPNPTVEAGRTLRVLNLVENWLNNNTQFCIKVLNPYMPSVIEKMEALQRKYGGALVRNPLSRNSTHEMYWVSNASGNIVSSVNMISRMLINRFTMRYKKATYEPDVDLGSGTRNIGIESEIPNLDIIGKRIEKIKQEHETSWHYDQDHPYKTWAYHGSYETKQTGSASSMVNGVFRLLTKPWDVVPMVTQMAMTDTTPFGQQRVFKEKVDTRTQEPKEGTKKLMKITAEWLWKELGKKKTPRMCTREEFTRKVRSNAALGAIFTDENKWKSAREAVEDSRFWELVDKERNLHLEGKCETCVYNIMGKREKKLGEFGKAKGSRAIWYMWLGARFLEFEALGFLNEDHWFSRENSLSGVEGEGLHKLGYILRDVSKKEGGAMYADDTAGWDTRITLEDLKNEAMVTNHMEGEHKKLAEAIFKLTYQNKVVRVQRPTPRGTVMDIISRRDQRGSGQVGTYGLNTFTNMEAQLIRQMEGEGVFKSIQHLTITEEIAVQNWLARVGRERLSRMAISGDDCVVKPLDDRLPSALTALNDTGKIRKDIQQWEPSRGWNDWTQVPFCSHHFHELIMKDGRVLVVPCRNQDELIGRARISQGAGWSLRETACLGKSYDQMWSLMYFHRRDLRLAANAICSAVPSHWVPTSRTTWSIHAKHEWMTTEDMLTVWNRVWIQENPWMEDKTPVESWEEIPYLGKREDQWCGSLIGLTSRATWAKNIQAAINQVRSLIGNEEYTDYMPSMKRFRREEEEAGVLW
FAD-linked sulfhydryl oxidase ALR, sequence (P55789 whole entry): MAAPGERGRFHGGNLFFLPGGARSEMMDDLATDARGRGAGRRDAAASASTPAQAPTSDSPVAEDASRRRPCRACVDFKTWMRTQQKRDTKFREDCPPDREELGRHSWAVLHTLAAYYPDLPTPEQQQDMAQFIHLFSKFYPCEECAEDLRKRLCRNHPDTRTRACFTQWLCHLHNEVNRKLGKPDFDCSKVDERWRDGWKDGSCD

In the case of `CCOC(=O)N1CCN(C(=O)CNC2CCCCCCC2)CC1`, the EC50 [1] is reported as 16.7 µM (active) and the EC50 [2] is reported as > 112 µM (not active).
With `COC(=O)CC1=NN(c2ccccc2)C(=O)/C1=C\c1ccc(OC)cc1` the IC50 [3] was 33.3 µM (active).
For `CC(=O)N(C)c1ccc(N=NC2C(=O)N(C(N)=S)N=C2C)cc1` (centres undefined), the EC50 [4] was 34.6 µM (active) and the EC50 [5] was > 300 µM (not active).
In the case of `COc1ccccc1N1C(=O)NC(=O)/C(=C\c2c[nH]c3ccccc23)C1=O`, the EC50 [4] is reported as > 300 µM (not active) and the EC50 [5] is reported as > 300 µM (not active).
With `CC1CCCCC1NC(=O)c1ccc(S(=O)(=O)NNC(=O)c2ccncc2)cc1` (centres undefined) the AC50 [6] was 2.99 µM (active).
In the case of `O=C(O)c1ccccc1NS(=O)(=O)c1cccc(NS(=O)(=O)c2cc(Br)ccc2Br)c1`, the IC50 [3] is reported as 28.3 µM (active).
For `CC(=O)Oc1ccc(-c2cc3ccc(OC(C)=O)cc3oc2=O)cc1`, the EC50 [2] was > 112 µM (not active).
With `CCOC(=O)c1c(NC(=O)Nc2ccc(F)cc2)sc2c1CCN(C)C2` the EC50 [4] was 39.8 µM (active) and the EC50 [5] was 27.7 µM (inconclusive).
With `CN(C)c1ccc(NC(=O)CCn2c(=S)oc3ccccc32)cc1` the AC50 [6] was 14.6 µM (active).
In the case of `O=C(NC1CCCCC1)N(C1=NCCCCC1)c1ccc(Br)cc1`, the EC50 [1] is reported as > 112 µM (not active) and the EC50 [2] is reported as > 112 µM (not active).
For `CSC1=C(C#N)C(=O)NC(c2ccccc2O)S1` (centres undefined), the IC50 [3] was 45.2 µM (active).
With `O=C(NNC(=O)c1ccccc1OCc1ccccc1Cl)c1csc(N2CCOCC2)n1` the EC50 [7] was 12.8 µM (active), the EC50 [8] was > 150 µM (not active) and the IC50 [9] was 12.8 µM (active). For the same compound, the EC50 [10] was > 150 µM (not active).
In the case of `CCC(=O)OC1(C)C(=O)C=C2C=C(c3ccsc3)OC=C2C1=O` (centres undefined), the EC50 [4] is reported as 32.5 µM (active) and the EC50 [5] is reported as 34.1 µM (active).
In the case of `Cc1cccc(C(=O)O/N=C(\N)c2ccccn2)c1`, the EC50 [1] is reported as 20.4 µM (active) and the EC50 [2] is reported as 7.75 µM (active).
